Values after ≈ are worked out from the molar mass of the structure shown. Active and inactive are the calls of the source. The rule behind the calls is not given here.
Assays:
Format in all cases: functional
Bacillus subtilis = assay: Antimicrobial activity against Bacillus subtilis ATCC 6633 assessed as growth inhibition after 24 hr by NCCLS broth dilution method
Staphylococcus aureus = assay: Antimicrobial activity against Staphylococcus aureus ATCC 25923 assessed as growth inhibition after 24 hr by NCCLS broth dilution method
Escherichia coli = assay: Antimicrobial activity against Escherichia coli ATCC 25922 assessed as growth inhibition after 24 hr by NCCLS broth dilution method
Pseudomonas aeruginosa = assay: Antimicrobial activity against Pseudomonas aeruginosa ATCC 27853 assessed as growth inhibition after 24 hr by NCCLS broth dilution method

Compound	MIC (Bacillus subtilis)	MIC (Bacillus subtilis; ATCC 6633, 24 h)	MIC (Staphylococcus aureus)	MIC (Staphylococcus aureus; ATCC 25923, 24 h)	MIC (Escherichia coli)	MIC (Escherichia coli; ATCC 25922, 24 h)	MIC (Pseudomonas aeruginosa)	MIC (Pseudomonas aeruginosa; ATCC 27853, 24 h)
CN1CCN(c2cc3ncnc(Sc4nnc(-c5cccnc5)o4)c3cc2NC(=O)Nc2ccc(-c3ccccc3)cc2)CC1	inactive	100 µg/mL (≈ 162 µM)	inactive	25 µg/mL (≈ 40.6 µM)	inactive	50 µg/mL (≈ 81.2 µM)	inactive	25 µg/mL (≈ 40.6 µM)
CN1CCN(c2cc3ncnc(Sc4nnc(-c5cccnc5)o4)c3cc2NC(=O)Nc2ccccc2)CC1	inactive	12.5 µg/mL (≈ 23.2 µM)	inactive	25 µg/mL (≈ 46.3 µM)	inactive	25 µg/mL (≈ 46.3 µM)	inactive	50 µg/mL (≈ 92.7 µM)
CN1CCN(c2cc3ncnc(Sc4nnc(-c5cccnc5)o4)c3cc2NC(=S)Nc2cccc(Cl)c2)CC1	inactive	25 µg/mL (≈ 42.4 µM)	inactive	6.25 µg/mL (≈ 10.6 µM)	inactive	12.5 µg/mL (≈ 21.2 µM)	inactive	50 µg/mL (≈ 84.7 µM)
COc1ccccc1NC(=S)Nc1cc2c(Sc3nnc(-c4cccnc4)o3)ncnc2cc1N1CCN(C)CC1	inactive	25 µg/mL (≈ 42.7 µM)	inactive	12.5 µg/mL (≈ 21.3 µM)	inactive	25 µg/mL (≈ 42.7 µM)	inactive	50 µg/mL (≈ 85.4 µM)
Cc1ccccc1NC(=S)Nc1cc2c(Sc3nnc(-c4cccnc4)o3)ncnc2cc1N1CCN(C)CC1	inactive	75 µg/mL (≈ 132 µM)	inactive	50 µg/mL (≈ 87.8 µM)	inactive	100 µg/mL (≈ 176 µM)	inactive	25 µg/mL (≈ 43.9 µM)
CN1CCN(c2cc3ncnc(Sc4nnc(-c5cccnc5)o4)c3cc2NC(=O)NCCc2ccccc2)CC1	inactive	25 µg/mL (≈ 44 µM)	inactive	6.25 µg/mL (≈ 11 µM)	inactive	12.5 µg/mL (≈ 22 µM)	inactive	50 µg/mL (≈ 88.1 µM)
CC1(C)S[C@@H]2[C@H](NC(=O)Cc3ccccc3)C(=O)N2[C@H]1C(=O)O [PENICILLIN G]	inactive	1.56 µg/mL (≈ 4.67 µM)	inactive	1.56 µg/mL (≈ 4.67 µM)	inactive	6.25 µg/mL (≈ 18.7 µM)	inactive	12.5 µg/mL (≈ 37.4 µM)
Cc1cccc(NC(=O)Nc2cc3c(Sc4nnc(-c5cccnc5)o4)ncnc3cc2N2CCN(C)CC2)c1	inactive	25 µg/mL (≈ 45.2 µM)	inactive	50 µg/mL (≈ 90.3 µM)	inactive	25 µg/mL (≈ 45.2 µM)	inactive	50 µg/mL (≈ 90.3 µM)
O=C(Nc1ccc(-c2ccccc2)cc1)Nc1ccc2ncnc(Sc3nnc(-c4cccnc4)o3)c2c1	inactive	12.5 µg/mL (≈ 24.2 µM)	inactive	12.5 µg/mL (≈ 24.2 µM)	inactive	100 µg/mL (≈ 193 µM)	inactive	75 µg/mL (≈ 145 µM)
O=C(Nc1ccc2ncnc(Sc3nnc(-c4cccnc4)o3)c2c1)NC1CCCCC1	inactive	50 µg/mL (≈ 112 µM)	inactive	25 µg/mL (≈ 55.9 µM)	inactive	50 µg/mL (≈ 112 µM)	inactive	100 µg/mL (≈ 223 µM)
O=C(Nc1ccc2ncnc(Sc3nnc(-c4cccnc4)o3)c2c1)Nc1ccccc1Cl	inactive	12.5 µg/mL (≈ 26.3 µM)	inactive	25 µg/mL (≈ 52.5 µM)	inactive	25 µg/mL (≈ 52.5 µM)	inactive	75 µg/mL (≈ 158 µM)
CN[C@@H]1[C@H](O[C@H]2[C@H](O[C@H]3[C@H](O)[C@@H](O)[C@H](N=C(N)N)[C@@H](O)[C@@H]3N=C(N)N)O[C@@H](C)[C@]2(O)C=O)O[C@@H](CO)[C@H](O)[C@H]1O [STREPTOMYCIN]	inactive	6.25 µg/mL (≈ 10.7 µM)	inactive	6.25 µg/mL (≈ 10.7 µM)	inactive	3.12 µg/mL (≈ 5.37 µM)	inactive	3.12 µg/mL (≈ 5.37 µM)
S=C(Nc1cccc(Cl)c1)Nc1ccc2ncnc(Sc3nnc(-c4cccnc4)o3)c2c1	inactive	25 µg/mL (≈ 50.8 µM)	inactive	6.25 µg/mL (≈ 12.7 µM)	inactive	50 µg/mL (≈ 102 µM)	inactive	75 µg/mL (≈ 152 µM)
CN1CCN(c2cc3ncnc(Sc4nnc(-c5cccnc5)o4)c3cc2NC(=S)Nc2ccccc2Cl)CC1	inactive	6.25 µg/mL (≈ 10.6 µM)	inactive	25 µg/mL (≈ 42.4 µM)	inactive	25 µg/mL (≈ 42.4 µM)	inactive	12.5 µg/mL (≈ 21.2 µM)
CN1CCN(c2cc3ncnc(Sc4nnc(-c5cccnc5)o4)c3cc2NC(=O)Nc2ccc(Cl)cc2)CC1	inactive	6.25 µg/mL (≈ 10.9 µM)	inactive	25 µg/mL (≈ 43.5 µM)	inactive	12.5 µg/mL (≈ 21.8 µM)	inactive	50 µg/mL (≈ 87.1 µM)
Cc1ccccc1NC(=O)Nc1cc2c(Sc3nnc(-c4cccnc4)o3)ncnc2cc1N1CCN(C)CC1	inactive	100 µg/mL (≈ 181 µM)	inactive	12.5 µg/mL (≈ 22.6 µM)	inactive	50 µg/mL (≈ 90.3 µM)	inactive	100 µg/mL (≈ 181 µM)
S=C(Nc1ccc2ncnc(Sc3nnc(-c4cccnc4)o3)c2c1)Nc1ccccc1Cl	inactive	50 µg/mL (≈ 102 µM)	inactive	25 µg/mL (≈ 50.8 µM)	inactive	25 µg/mL (≈ 50.8 µM)	inactive	50 µg/mL (≈ 102 µM)
CN1CCN(c2cc3ncnc(Sc4nnc(-c5cccnc5)o4)c3cc2NC(=O)NC2CCCCC2)CC1	inactive	12.5 µg/mL (≈ 22.9 µM)	inactive	50 µg/mL (≈ 91.6 µM)	inactive	25 µg/mL (≈ 45.8 µM)	inactive	50 µg/mL (≈ 91.6 µM)
Cc1ccccc1NC(=S)Nc1ccc2ncnc(Sc3nnc(-c4cccnc4)o3)c2c1	inactive	50 µg/mL (≈ 106 µM)	inactive	75 µg/mL (≈ 159 µM)	inactive	25 µg/mL (≈ 53 µM)	inactive	100 µg/mL (≈ 212 µM)
Cc1ccc(NC(=S)Nc2ccc3ncnc(Sc4nnc(-c5cccnc5)o4)c3c2)cc1	inactive	25 µg/mL (≈ 53 µM)	inactive	25 µg/mL (≈ 53 µM)	inactive	50 µg/mL (≈ 106 µM)	inactive	75 µg/mL (≈ 159 µM)
COc1ccccc1NC(=S)Nc1ccc2ncnc(Sc3nnc(-c4cccnc4)o3)c2c1	inactive	25 µg/mL (≈ 51.3 µM)	inactive	12.5 µg/mL (≈ 25.6 µM)	inactive	25 µg/mL (≈ 51.3 µM)	inactive	50 µg/mL (≈ 103 µM)
S=C(Nc1ccc(Cl)cc1)Nc1ccc2ncnc(Sc3nnc(-c4cccnc4)o3)c2c1	inactive	12.5 µg/mL (≈ 25.4 µM)	inactive	25 µg/mL (≈ 50.8 µM)	inactive	25 µg/mL (≈ 50.8 µM)	inactive	100 µg/mL (≈ 203 µM)
S=C(Nc1ccccc1)Nc1ccc2ncnc(Sc3nnc(-c4cccnc4)o3)c2c1	inactive	75 µg/mL (≈ 164 µM)	inactive	50 µg/mL (≈ 109 µM)	inactive	50 µg/mL (≈ 109 µM)	inactive	100 µg/mL (≈ 219 µM)

Reference: ChEMBL document CHEMBL3046216, “Synthesis, biological evaluation and QSAR study of a series of substituted quinazolines as antimicrobial agents” (2013)
